Test results as given in patent US20190076434A1, “METHODS OF TREATING PERIPHERAL VASCULAR DISEASES, INCLUDING SYSTEMIC SCLEROSIS VASCULOPATHY” (UNIVERSITY OF UTAH RESEARCH FOUNDATION, priority 2016, published 2019).

Legend:
patients with SSc [1] = system: patients with SSc
patients with SSc [2] = experiment: Example 2: seated brachial artery blood pressure and mean arterial pressure, BH4 vs placebo; type: in vivo, human; conditions: five hours after oral BH4 10 mg/kg
Description: Experimental Design. A controlled, randomized, double-blind, crossover experimental design with two conditions, BH4 and placebo, was used, with a washout period of ≥5 days between conditions. Subjects consumed a standardized breakfast and were administered oral BH4 (10 mg/kg) or placebo five hours prior arrival at the laboratory. Measurements were taken at the same time of day to eliminate any diurnal effects and after having abstained from food (not including the standardized breakfast), alcohol, caffeine, cardiovascular-acting medications, and exercise for ≥12 hours. In premenopausal women, measurements were performed during the early follicular phase of the menstrual cycle.
Blood Pressure. Seated BA blood pressure measurements were made with a semi-automated BP device (Tango+, SunTech, Morrisville, N.C.) in triplicate after 5 min in the upright seated position with the arm at heart level and under quiet, comfortable, ambient (˜22° C.) laboratory conditions. Mean arterial pressure (MAP) was calculated using the equation: ⅓ systolic blood pressure+⅔ diastolic blood pressure.
Statistics. Statistics were performed using SPSS software (IBM, Chicago, Ill.). Paired, one-tailed t-tests were used to identify significant changes in measured variables between placebo and BH4 conditions. Statistical significance was set at P<0.05 for all analyses. Unless indicated otherwise, data are presented as Means±SEM.

patients with SSc [3] = experiment: Example 2: brachial artery flow-mediated dilation (FMD), double-blind randomized crossover, BH4 vs placebo; type: in vivo, human
Excerpt: Methods: Subjects. Eleven subjects with SSc (3 men and 8 women) were recruited from the University of Utah SSc clinic to participate in the current study. All subjects had either a diagnosis of SSc as accepted by the American College of Rheumatology or early SSc as described by Leroy and […]. All subjects gave their written informed consent before participation. Protocol approval and written informed consent were obtained, according to the University of Utah and Salt Lake City Veterans Affairs Medical Center (VAMC) Institutional Review Board, in accordance with the principles outlined in the Declaration of Helsinki. All data collection took place in the Utah Vascular Research Laboratory at the Salt Lake City VAMC Geriatric Research, Education, and Clinical Center. Experimental Design. […] Subjects consumed a standardized breakfast and were administered oral BH4 (10 mg/kg) or placebo five hours prior arrival at the laboratory. Measurements were taken at the same time of day to eliminate any diurnal effects and after having abstained from food (not including the standardized breakfast), alcohol, caffeine, cardiovascular-acting medications, and exercise for ≥12 hours. […] Heart rate was monitored from a standard 3-lead ECG. […] FMD was quantified as the maximal change in BA diameter after cuff release. NMD was quantified as the maximal change in BA diameter after sublingual nitroglycerin supplementation. […] Shear rate was calculated according to the equation: shear rate (s-1)=(Vmean·8)/vessel diameter. Blood flow was calculated as per the equation: blood flow (mL·min)=(blood velocity×π)×(vessel diameter/2)2×(60). Cumulative shear rate cumulative area under the curve at the time of peak BA vasodilation was integrated with the trapezoidal rule and calculated as per the following equation: τ([…]]). Forearm vascular conductance was calculated according to the equation: […]. Forearm vascular resistance was calculated according to the equation: […]. […] Paired, one-tailed t-tests were used to identify significant changes in measured variables between placebo and BH4 conditions. […]

[4] = one SSc subject, BH4 vs placebo, data not shown
[5] = 11 SSc patients, five hours after oral BH4 10 mg/kg, P<0.05

Structure (SMILES): C[C@H](O)[C@H](O)[C@H]1CNc2nc(N)[nH]c(=O)c2N1 [BH4, tetrahydrobiopterin]
- blood pressure (patients with SSc [1]; human, in vivo): 125/77
- FMD, increase compared to placebo (patients with SSc [1]; one SSc subject, BH4 vs placebo, FIG. 7A): 73%
- peak hyperemia, increase compared to placebo (patients with SSc [1]; one SSc subject, BH4 vs placebo, FIG. 7B): 63%
- area under the curve for hyperemia, increase compared to placebo (patients with SSc [1]; one SSc subject, BH4 vs placebo, FIG. 7C): ~160%
- resting blood flow in the forearm, increase compared to placebo (patients with SSc [1]; [4]): ~20%
- resting blood flow in the leg, increase compared to placebo (patients with SSc [1]; [4]): 34%
- casual seated diastolic blood pressure (patients with SSc [2]; Means ± SEM, P>0.05 vs placebo): 68±2 mmHg
- casual seated systolic blood pressure (patients with SSc [2]; Means ± SEM, P>0.05 vs placebo): 109±5 mmHg
- MAP, difference in the BH4 condition compared to placebo (patients with SSc [2]; P<0.05 vs placebo): ~−2 mmHg
- absolute FMD, improvement vs. placebo (patients with SSc [3]; [5]): 44%
- percentage FMD, improvement vs. placebo (patients with SSc [3]; [5]): 48%
- FMD value in the BH4 condition (patients with SSc [3]; second study, placebo FMD 3.2%, corresponds to highest tertile of FMD): 5.6%
